Results on 1 compound are retold here after patent US11604184B2, “Juvenile atopic dermatitis models” (Laboratoires Expanscience, priority 2016, dated 2023).

The structures appear in SMILES notation.

For this assay, the system named is S. aureus biofilm. As to the kind of experiment: Model for studying S. aureus biofilm on reconstructed epidermises (scanning electron microscopy). Type of assay: cell-based, Staphylococcus aureus (MRSA; ATCC 33591). The conditions noted are these: 24 hours after colonization. The method, then: The test products (P1, P5 or P8) or 5% xylitol (positive control for inhibition of biofilm formation) were applied topically to reconstructed epidermises at a rate of 30 μL/epidermis, after undergoing slight surface abrasion.
After incubation overnight, the products were removed by rinsing and a 2·10^6 cfu inoculum of Staphylococcus aureus (methicillin-resistant S. aureus, MRSA; ATCC 33591) was applied to the surface of the reconstructed epidermises.
Biofilm formation and the effect of the product thereon were observed visually by scanning electron microscopy (SEM) 6 and 24 hours after colonization.

As for `OC[C@@H](O)[C@H](O)[C@@H](O)CO` [xylitol], the “S. aureus biofilm formation on the surface of epidermises, observed by SEM (in words)” value is recorded as “did not produce biofilm”.
